Source: patent US20260200897A1, “4-((5-(3-(4-(PYRIDIN-2-YL)CYCLOPENTYL)-1H-PYRAZOL-3-YL)AMINO)-BENZENESULFONAMIDE DERIVATIVES AND SIMILAR COMPOUNDS AS CDK INHIBITORS FOR THE TREATMENT OF CANCER” (BeOne Medicines I GmbH, priority 2023, published 2026)
pIC50: −log10 of the molar value.

How the values were obtained:
[1] = molecular target: T1, CDK2/Cyclin E1 (Homo sapiens, UniProt P24941); experiment: CDK2/Cyclin E1 TR-FRET biochemical assay, 0.060 mM ATP; settings: 0.15 μM Rb (Ser780)-biotin substrate, 120 min reaction, Table 1
Protocol: (§1) Compounds disclosed herein were tested for inhibition of CDK2/Cyclin E1 or CDK1/Cyclin B1 kinase in an assay based on the time-resolved fluorescence-resonance energy transfer (TR-FRET) methodology. The assay was carried out in 384-well low volume black plates in a reaction mixture containing CDK2/Cyclin E1 or CDK1/Cyclin B1, 0.060 mM ATP for CDK2/Cyclin E1 or 0.015 mM ATP for CDK1/Cyclin B1, 0.15 μM Rb (Ser780)-biotin substrate and 0-10 μM compound in buffer containing 50 mM HEPES pH7.0, 0.02% NaN3, 0.01% BSA, 0.1 mM Orthovanadate, 50 mM MgCl2, 1 mM DTT and 0.005% Tween-20. The kinase was incubated with compound for 60 minutes at room temperature and the reaction was initiated by the addition of ATP and Rb (Ser780)-biotin substrate. After reaction at room temperature for 120 minutes, an equal volume of stop/detection solution was added according to the manufacture's instruction (Cisbio Bioassays). The stop/detection solution contained Streptavidin-XL665 and Anti-pRb (Ser780) mAb-Eu Cryptate in Detection buffer (Cisbio Bioassays). Plates were incubated at room temperature for 60 minutes, and the TR-FRET signals (ex337 nm, em665 nm/620 nm) were recorded on a PHERAstar FSX plate reader (BMG Labtech). The inhibition percentage of CDK2/Cyclin E1 or CDK1/Cyclin B1 kinase activity in presence of increasing concentrations of compounds was calculated based on the ratio of fluorescence at 665 nm to that at 620 nm. The IC50 for each compound was derived from fitting the data to the four-parameter logistic equation by Dotmatics.

[2] = molecular target: T2, CDK1/Cyclin B1 (Homo sapiens, UniProt P06493); experiment: CDK1/Cyclin B1 TR-FRET biochemical assay, 0.015 mM ATP; settings: 0.15 μM Rb (Ser780)-biotin substrate, 120 min reaction, Table 1
T2 sequence (P06493 whole entry): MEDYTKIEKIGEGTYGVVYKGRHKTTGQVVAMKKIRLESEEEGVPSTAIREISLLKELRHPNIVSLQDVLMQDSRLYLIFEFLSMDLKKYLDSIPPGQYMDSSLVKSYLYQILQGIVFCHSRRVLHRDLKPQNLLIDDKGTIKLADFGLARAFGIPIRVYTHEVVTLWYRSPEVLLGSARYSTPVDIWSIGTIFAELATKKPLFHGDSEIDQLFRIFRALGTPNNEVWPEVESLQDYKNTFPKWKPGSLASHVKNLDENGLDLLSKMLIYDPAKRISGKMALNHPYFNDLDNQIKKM
T2 sequence (P14635 whole entry partner): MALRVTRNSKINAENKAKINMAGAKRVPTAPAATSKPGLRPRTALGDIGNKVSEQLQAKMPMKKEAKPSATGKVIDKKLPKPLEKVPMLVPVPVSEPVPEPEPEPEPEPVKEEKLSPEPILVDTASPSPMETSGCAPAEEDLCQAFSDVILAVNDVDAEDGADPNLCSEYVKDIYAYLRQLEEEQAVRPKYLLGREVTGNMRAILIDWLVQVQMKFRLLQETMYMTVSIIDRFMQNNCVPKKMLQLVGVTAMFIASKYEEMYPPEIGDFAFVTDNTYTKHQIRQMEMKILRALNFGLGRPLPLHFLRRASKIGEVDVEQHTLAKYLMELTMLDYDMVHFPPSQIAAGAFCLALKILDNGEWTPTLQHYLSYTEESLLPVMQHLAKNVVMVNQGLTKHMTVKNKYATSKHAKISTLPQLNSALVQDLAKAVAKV
Protocol: as §1

[3] = molecular target: T1, CDK2/Cyclin E1; experiment: CDK2/Cyclin E1 TR-FRET biochemical assay, 1 mM ATP; settings: 0.15 μM Rb (Ser780)-biotin substrate, 90 min reaction, Table 2
[4] = molecular target: T2, CDK1/Cyclin B1; experiment: CDK1/Cyclin B1 TR-FRET biochemical assay, 1 mM ATP; settings: 0.15 μM Rb (Ser780)-biotin substrate, 90 min reaction, Table 2

Row | Structure (SMILES) | pIC50 [1] | pIC50 [2] | pIC50 [3] | pIC50 [4]
1 | CC(C)c1ccnnc1O[C@@H]1CC[C@H](c2cc(Nc3ccc4c(c3F)CNS4(=O)=O)n[nH]2)C1 (relative stereo) [Example 27, cis-4-fluoro-5-((5-(3-((4-isopropylpyridazin-3-yl)oxy)cyclopentyl)-1H-pyrazol-3-yl)amino)-2,3-dihydrobenzo[d]isothiazole 1,1-dioxide] | 9.15 | 8.43 |  | 
2 | Cc1ccnn([C@H]2CC[C@@H](c3cc(Nc4ccc5c(c4F)CNS5(=O)=O)n[nH]3)C2)c1=O (relative stereo) [Example 23, cis-2-(3-(3-((4-fluoro-1,1-dioxido-2,3-dihydrobenzo[d]isothiazol-5-yl)amino)-1H-pyrazol-5-yl)cyclopentyl)-4-methylpyridazin-3 (2H)-one] | 6.88 | 6.28 |  | 
3 | CCc1ccnnc1O[C@@H]1CC[C@H](c2cc(Nc3ccc4c(c3F)CNS4(=O)=O)n[nH]2)C1 (relative stereo) [Example 25, cis-5-((5-(3-((4-ethylpyridazin-3-yl)oxy)cyclopentyl)-1H-pyrazol-3-yl)amino)-4-fluoro-2,3-dihydrobenzo[d]isothiazole 1,1-dioxide] | 8.85 | 7.96 |  | 
4 | CC(C)c1ccnn([C@H]2CC[C@@H](c3cc(Nc4ccc5c(c4F)CNS5(=O)=O)n[nH]3)C2)c1=O (relative stereo) [Example 26, cis-2-(3-(3-((4-fluoro-1,1-dioxido-2,3-dihydrobenzo[d]isothiazol-5-yl)amino)-1H-pyrazol-5-yl)cyclopentyl)-4-isopropylpyridazin-3 (2H)-one] | 6.85 | 5.77 |  | 
5 | O=c1cccnn1[C@H]1CC[C@@H](c2cc(Nc3ccc4c(c3F)CNS4(=O)=O)n[nH]2)C1 (relative stereo) [Example 21, cis-2-(3-(3-((4-fluoro-1,1-dioxido-2,3-dihydrobenzo[d]isothiazol-5-yl)amino)-1H-pyrazol-5-yl)cyclopentyl)pyridazin-3 (2H)-one] | 7.85 | 6.85 |  | 
6 | O=c1c2ccncc2cnn1[C@H]1CC[C@@H](c2cc(Nc3ccc4c(c3F)CNS4(=O)=O)n[nH]2)C1 (relative stereo) [Example 34, cis-2-(3-(3-((4-fluoro-1,1-dioxido-2,3-dihydrobenzo[d]isothiazol-5-yl)amino)-1H-pyrazol-5-yl)cyclopentyl)pyrido[3,4-d]pyridazin-1 (2H)-one] | 7.20 | 5.81 |  | 
7 | O=S1(=O)NCc2c1ccc(Nc1cc([C@H]3CC[C@@H](Oc4ccccn4)C3)[nH]n1)c2F (relative stereo) [Example 46, cis-4-fluoro-5-((5-(3-(pyridin-2-yloxy)cyclopentyl)-1H-pyrazol-3-yl)amino)-2,3-dihydrobenzo[d]isothiazole 1,1-dioxide] | 6.38 | 5.13 |  | 
8 | CC(C)(C)c1ccnnc1O[C@H]1CC[C@H](c2cc(Nc3ccc4c(c3F)CNS4(=O)=O)n[nH]2)C1 (relative stereo) [Example 36, trans-5-((5-(3-((4-(tert-butyl)pyridazin-3-yl)oxy)cyclopentyl)-1H-pyrazol-3-yl)amino)-4-fluoro-2,3-dihydrobenzo[d]isothiazole 1,1-dioxide] |  |  | < 5.00 | < 5.00
9 | CC(C)c1ccnc(C2CCC(c3cc(Nc4ccc(S(N)(=O)=O)cc4F)n[nH]3)C2)n1 (stereo not shown) [Example 5, 3-fluoro-4-((5-(3-(4-isopropylpyrimidin-2-yl)cyclopentyl)-1H-pyrazol-3-yl)amino)benzenesulfonamide] |  |  | 8.34 | 6.18
10 | CC(C)(C)c1ccnc(C2CCC(c3cc(Nc4ccc(S(N)(=O)=O)cc4F)n[nH]3)C2)c1 (stereo not shown) [Example 1, 4-((5-(3-(4-(tert-butyl)pyridin-2-yl)cyclopentyl)-1H-pyrazol-3-yl)amino)-3-fluorobenzenesulfonamide] |  |  | 7.00 | < 5.00

Further lines, results first:

Row | pIC50 [1] | pIC50 [2] | pIC50 [3] | pIC50 [4] | Structure (SMILES)
11 | 6.67 | 5.75 |  |  | O=c1ccsn1[C@H]1CC[C@@H](c2cc(Nc3ccc4c(c3F)CNS4(=O)=O)n[nH]2)C1 (relative stereo) [Example 51, cis-2-(3-(3-((4-fluoro-1,1-dioxido-2,3-dihydrobenzo[d]isothiazol-5-yl)amino)-1H-pyrazol-5-yl)cyclopentyl)isothiazol-3 (2H)-one]
12 | 7.68 | 6.29 |  |  | CCc1cnc(C2CCC(c3cc(Nc4ccc5c(c4F)CNS5(=O)=O)n[nH]3)C2)o1 (stereo not shown) [Example 92, 5-((5-(3-(5-ethyloxazol-2-yl)cyclopentyl)-1H-pyrazol-3-yl)amino)-4-fluoro-2,3-dihydrobenzo[d]isothiazole 1,1-dioxide]
13 | 7.74 | 6.17 |  |  | CC(C)(C)c1n[nH]cc1OC1CCC(c2cc(Nc3ccc4c(c3F)CNS4(=O)=O)n[nH]2)C1 (single isomer, unassigned) [Example 74b, cis-5-((5-(3-((3-(tert-butyl)-1H-pyrazol-4-yl)oxy)cyclopentyl)-1H-pyrazol-3-yl)amino)-4-fluoro-2,3-dihydrobenzo[d]isothiazole 1,1-dioxide]
14 | 8.21 | 7.09 |  |  | CCc1cnc(C2CCC(c3cc(Nc4ccc5c(c4)CS(=O)(=O)N5)n[nH]3)C2)o1 (stereo not shown) [Example 133, 5-((5-(3-(5-ethyloxazol-2-yl)cyclopentyl)-1H-pyrazol-3-yl)amino)-1,3-dihydrobenzo[c]isothiazole 2,2-dioxide]
15 | 8.31 | 6.52 |  |  | CC(C)(C)c1n[nH]cc1OC1CCC(c2cc(Nc3ccc4c(c3F)CNS4(=O)=O)n[nH]2)C1 (single isomer, unassigned) [Example 74a, cis-5-((5-(3-((3-(tert-butyl)-1H-pyrazol-4-yl)oxy)cyclopentyl)-1H-pyrazol-3-yl)amino)-4-fluoro-2,3-dihydrobenzo[d]isothiazole 1,1-dioxide]
16 | 7.64 | 5.59 |  |  | CC(C)(C)c1cnc(C2CCC(c3cc(Nc4ccc5c(c4F)CNS5(=O)=O)n[nH]3)C2)o1 (single isomer, unassigned) [Example 91b, cis-5-((5-(3-(5-(tert-butyl)oxazol-2-yl)cyclopentyl)-1H-pyrazol-3-yl)amino)-4-fluoro-2,3-dihydrobenzo[d]isothiazole 1,1-dioxide]
17 | 7.92 | 6.70 |  |  | CCOC(=O)c1cn[nH]c1O[C@H]1CC[C@@H](c2cc(Nc3ccc4c(c3F)CNS4(=O)=O)n[nH]2)C1 (relative stereo) [Example 68, cis-ethyl 5-((3-(3-((4-fluoro-1,1-dioxido-2,3-dihydrobenzo[d]isothiazol-5-yl)amino)-1H-pyrazol-5-yl)cyclopentyl)oxy)-1H-pyrazole-4-carboxylate]
18 | 8.12 | 6.25 |  |  | CC(C)(C)n1cnnc1O[C@@H]1CC[C@H](c2cc(Nc3ccc4c(c3F)CNS4(=O)=O)n[nH]2)C1 (relative stereo) [Example 59, (cis)-5-((5-(3-((4-(tert-butyl)-4H-1,2,4-triazol-3-yl)oxy)cyclopentyl)-1H-pyrazol-3-yl)amino)-4-fluoro-2,3-dihydrobenzo[d]isothiazole 1,1-dioxide]
19 |  |  | < 5.00 | < 5.00 | CC(C)(C)c1cccc(C2CCC(c3cc(Nc4ccc5c(c4F)CNS5(=O)=O)n[nH]3)C2)c1 (stereo not shown) [Example 132, 5-((5-(3-(3-(tert-butyl)phenyl)cyclopentyl)-1H-pyrazol-3-yl)amino)-4-fluoro-2,3-dihydrobenzo[d]isothiazole 1,1-dioxide]
20 |  |  | 8.41 | 6.17 | CC(C)c1ccnc(C2CCC(c3cc(Nc4ccc5c(c4F)CNS5(=O)=O)n[nH]3)C2)n1 (stereo not shown) [Example 126, 4-fluoro-5-((5-(3-(4-isopropylpyrimidin-2-yl)cyclopentyl)-1H-pyrazol-3-yl)amino)-2,3-dihydrobenzo[d]isothiazole 1,1-dioxide]
21 |  |  | 5.98 | < 5.00 | CC(C)(C)c1cc(C2CCC(c3cc(Nc4ccc5c(c4F)CS(=O)(=O)N5)n[nH]3)C2)ccn1 (stereo not shown) [Example 161, 5-((5-(3-(2-(tert-butyl)pyridin-4-yl)cyclopentyl)-1H-pyrazol-3-yl)amino)-4-fluoro-1,3-dihydrobenzo[c]isothiazole 2,2-dioxide]
22 |  |  | 5.95 | < 5.00 | Cc1[nH]nc(C(C)(C)C)c1O[C@@H]1CC[C@H](c2cc(Nc3ccc4c(c3F)CNS4(=O)=O)n[nH]2)C1 (relative stereo) [Example 80, cis-5-((5-(3-((3-(tert-butyl)-5-methyl-1H-pyrazol-4-yl)oxy)cyclopentyl)-1H-pyrazol-3-yl)amino)-4-fluoro-2,3-dihydrobenzo[d]isothiazole 1,1-dioxide]
23 |  |  | 9.22 | 6.72 | CC(C)(C)c1cnc(C2CCC(c3cc(Nc4ccc5c(c4)CN=S5(C)=O)n[nH]3)C2)o1 (single isomer, unassigned) [Example 169a, 5-((5-(3-(5-(tert-butyl)oxazol-2-yl)cyclopentyl)-1H-pyrazol-3-yl)amino)-1-methyl-3H-1λ^4-benzo[d]isothiazole 1-oxide]
